Values after ≈ are worked out from the molar mass of the structure shown. Active and inactive are the calls of the source. No cut-off for these calls is given here.
What was measured:
[1] = tested on: Clostridioides difficile; assay: Antibacterial activity against Clostridium difficile ATCC 43255 measured after 48 hrs by two fold serial dilution method; assay type: functional
[2] = tested on: THP-1; assay: Cytotoxicity against human THP-1 cells assessed as increase in LDH release incubate for 24 hrs by trypan-blue staining based analysis; assay type: functional, cell-based; conditions: THP-1, 24 h
[3] = Selectivity ratio of IC50 for human THP-1 cells to MIC for Clostridium difficile ATCC 43255; assay type: toxicity
[4] = tested on: HepG2; assay: Antiproliferative activity against human HepG2 cells assessed as inhibition of cell growth by XTT assay; assay type: functional, cell-based
[5] = Selectivity ratio of IC50 for human HepG2 cells to MIC for Clostridium difficile ATCC 43255; assay type: toxicity
[6] = tested on: Clostridioides difficile; assay: Bactericidal activity against Clostridium difficile ATCC 43255 incubated for 48 hrs under anaerobic conditions; assay type: functional
[7] = Selectivity ratio of MBC for bactericidal activity against Clostridium difficile ATCC 43255 to MIC for antibacterial activity for Clostridium difficile ATCC 43255; assay type: functional, Clostridioides difficile
[8] = tested on: Clostridioides difficile; assay: Antibacterial activity against Clostridium difficile ATCC 43255 assessed as log reduction in bacterial growth at 1 to 8 times MIC measured upto 48 hrs under anaerobic condition; assay type: functional
[9] = tested on: Clostridioides difficile; assay: Antibacterial activity against Clostridium difficile ATCC 43255 isolated from abdominal wound assessed as inhibition of bacterial growth measured after 48 hrs by two fold serial dilution method; assay type: functional
[10] = tested on: Clostridioides difficile; assay: Antibacterial activity against Clostridium difficile BAA-1870 assessed as inhibition of bacterial growth measured after 48 hrs by two fold serial dilution method; assay type: functional
[11] = tested on: Clostridioides difficile; assay: Antibacterial activity against Clostridium difficile BAA-1803 clinical isolate assessed as inhibition of bacterial growth measured after 48 hrs by two fold serial dilution method; assay type: functional
[12] = tested on: Clostridioides difficile; assay: Antibacterial activity against Clostridium difficile NR49310 isolated from human feces assessed as inhibition of bacterial growth measured after 48 hrs by two fold serial dilution method; assay type: functional
[13] = tested on: Clostridioides difficile; assay: Antibacterial activity against Clostridium difficile NR49294 isolated from human feces assessed as inhibition of bacterial growth measured after 48 hrs by two fold serial dilution method; assay type: functional
[14] = tested on: Clostridioides difficile; assay: Antibacterial activity against Clostridium difficile NR49305 isolated from human feces assessed as inhibition of bacterial growth measured after 48 hrs by two fold serial dilution method; assay type: functional
[15] = tested on: Clostridioides difficile; assay: Antibacterial activity against Clostridium difficile NR49318 isolated from human feces assessed as inhibition of bacterial growth measured after 48 hrs by two fold serial dilution method; assay type: functional
[16] = tested on: Clostridioides difficile; assay: Antibacterial activity against Clostridium difficile NR49292 assessed as inhibition of bacterial growth measured after 48 hrs by two fold serial dilution method; assay type: functional
[17] = tested on: Clostridioides difficile; assay: Antibacterial activity against Clostridium difficile NR49302 isolated from human feces assessed as inhibition of bacterial growth measured after 48 hrs by two fold serial dilution method; assay type: functional
[18] = tested on: Clostridioides difficile; assay: Antibacterial activity against Clostridium difficile 26675 clinical isolate assessed as inhibition of bacterial growth measured after 48 hrs by two fold serial dilution method; assay type: functional
[19] = tested on: Clostridioides difficile; assay: Antibacterial activity against Clostridium difficile 23828 clinical isolate assessed as inhibition of bacterial growth measured after 48 hrs by two fold serial dilution method; assay type: functional
[20] = tested on: Clostridioides difficile; assay: Antibacterial activity against Clostridium difficile 24531 clinical isolate assessed as inhibition of bacterial growth measured after 48 hrs by two fold serial dilution method; assay type: functional
[21] = tested on: Staphylococcus aureus; assay: Antibacterial activity against methicillin/oxacillin/tetracycline resistant vancomycin resistant Staphylococcus aureus NRS100 assessed as inhibition of bacterial growth measured after 48 hrs by two fold serial dilution method; assay type: functional
[22] = tested on: Staphylococcus aureus; assay: Antibacterial activity against ciprofloxacin/gentamicin/oxacillin/pencillin/linezolid resistant Staphylococcus aureus NRS119 assessed as inhibition of bacterial growth measured after 48 hrs by two fold serial dilution method; assay type: functional
[23] = tested on: Staphylococcus haemolyticus; assay: Antibacterial activity against Staphylococcus haemolyticus ATCC 29970 assessed as inhibition of bacterial growth measured after 48 hrs by two fold serial dilution method; assay type: functional
[24] = tested on: Streptococcus pyogenes; assay: Antibacterial activity against Streptococcus pyogenes ATCC 49399 assessed as inhibition of bacterial growth measured after 48 hrs by two fold serial dilution method; assay type: functional
[25] = tested on: Enterococcus faecalis; assay: Antibacterial activity against vancomycin resistant Enterococcus faecalis 99 clinical isolate assessed as inhibition of bacterial growth measured after 48 hrs by two fold serial dilution method; assay type: functional
[26] = tested on: Enterococcus faecium; assay: Antibacterial activity against vancomycin susceptible Enterococcus faecium119-39A clinical isolate assessed as inhibition of bacterial growth measured after 48 hrs by two fold serial dilution method; assay type: functional; conditions: 119-39A
[27] = tested on: Enterococcus faecium; assay: Antibacterial activity against vancomycin resistant Enterococcus faecium 106 clinical isolate assessed as inhibition of bacterial growth measured after 48 hrs by two fold serial dilution method; assay type: functional
[28] = tested on: Bacteroides fragilis; assay: Antibacterial activity against Bacteroides fragilis HM-709 assessed as inhibition of bacterial growth measured after 48 hrs by two fold serial dilution method; assay type: functional
[29] = tested on: Corynebacterium sp.; assay: Antibacterial activity against Corynebacterium sp. HM-784 assessed as inhibition of bacterial growth measured after 48 hrs by two fold serial dilution method; assay type: functional
[30] = tested on: Limosilactobacillus reuteri; assay: Antibacterial activity against Lactobacillus reuteri HM-102 assessed as inhibition of bacterial growth measured after 48 hrs by two fold serial dilution method; assay type: functional
[31] = tested on: Lactobacillus gasseri; assay: Antibacterial activity against Lactobacillus gasseri HM-644 assessed as inhibition of bacterial growth measured after 48 hrs by two fold serial dilution method; assay type: functional
[32] = tested on: Eubacterium sp.; assay: Antibacterial activity against Eubacterium sp. HM-178 assessed as inhibition of bacterial growth measured after 48 hrs by two fold serial dilution method; assay type: functional
[33] = tested on: Klebsiella pneumoniae; assay: Antibacterial activity against Klebsiella pneumoniae ATCC700603 assessed as inhibition of bacterial growth measured after 48 hrs by two fold serial dilution method; assay type: functional
[34] = tested on: Acinetobacter baumannii; assay: Antibacterial activity against Acinetobacter baumannii ATCC17961 assessed as inhibition of bacterial growth measured after 48 hrs by two fold serial dilution method; assay type: functional
[35] = tested on: Pseudomonas aeruginosa; assay: Antibacterial activity against Pseudomonas aeruginosa ATCC27853 assessed as inhibition of bacterial growth measured after 48 hrs by two fold serial dilution method; assay type: functional
[36] = tested on: Klebsiella aerogenes; assay: Antibacterial activity against Klebsiella aerogenes ATCC35029 assessed as inhibition of bacterial growth measured after 48 hrs by two fold serial dilution method; assay type: functional
[37] = tested on: Escherichia coli; assay: Antibacterial activity against Escherichia coli ATCC25922 assessed as inhibition of bacterial growth measured after 48 hrs by two fold serial dilution method; assay type: functional
[38] = tested on: Clostridioides difficile; assay: Antibacterial activity against Clostridium difficile ATCC 43255 assessed as as time duration of post-antibiotic effect for suppression of bacterial growth at 2 times MIC incubated for 1 hr in broth solution; assay type: functional
[39] = tested on: Clostridioides difficile; assay: Antibacterial activity against Clostridium difficile ATCC 43255 assessed as as time duration of post-antibiotic effect for suppression of bacterial growth at 1 time MIC incubated for 1 hr in broth solution; assay type: functional
[40] = tested on: Clostridioides difficile; assay: Antibacterial activity against Clostridium difficile ATCC 43255 assessed as as time duration of post-antibiotic effect for suppression of bacterial growth at 4 times MIC incubated for 1 hr in broth solution; assay type: functional
[41] = tested on: Clostridioides difficile; assay: Antibacterial activity against Clostridium difficile ATCC 43255 assessed as as time duration of post-antibiotic effect for suppression of bacterial growth at 8 times MIC incubated for 1 hr in broth solution; assay type: functional
[42] = tested on: Clostridioides difficile; assay: Induction of resistance against Clostridium difficile ATCC 43255 assessed as fold increase in MIC measured after 8 passages under anaerobic conditions; assay type: functional
[43] = tested on: Clostridioides difficile; assay: Induction of resistance against Clostridium difficile ATCC 43255 assessed as fold increase in MIC measured after 14 passages under anaerobic conditions; assay type: functional
[44] = tested on: Clostridioides difficile; assay: Induction of resistance against Clostridium difficile ATCC 43255 assessed as fold increase in MIC measured after 20 passages under anaerobic conditions; assay type: functional
[45] = tested on: Clostridioides difficile; assay: Antibacterial activity against Clostridium difficile ATCC 43255 assessed as damage in cell wall at 8 time MIC incubated for 24 hrs by scanning electron microscopy based analysis; assay type: functional, organism-based

Compound `O=[N+]([O-])c1c[nH]c(-c2nc(-c3ccc(OC4CCCC4)cc3)no2)n1` has an MIC [1] of 0.25 µg/mL (≈ 0.732 µM), an IC50 [2] greater than 128 µg/mL and a selectivity ratio [3] greater than 512. For the same compound, the IC50 [4] was 53.4 µg/mL (≈ 156 µM), the selectivity ratio [5] was 214 and the MBC [6] was 0.5 µg/mL (≈ 1.46 µM). The Ratio [7] was 2, the Activity [8] was 4 log10CFU/ml and the MIC [9] was 0.25 µg/mL (≈ 0.732 µM). The MIC [10] was 0.125 µg/mL (≈ 0.366 µM), the MIC [11] was 0.125 µg/mL (≈ 0.366 µM) and the MIC [12] was 0.25 µg/mL (≈ 0.732 µM). The MIC [13] was 0.5 µg/mL (≈ 1.46 µM), the MIC [14] was 0.125 µg/mL (≈ 0.366 µM) and the MIC [15] was 0.5 µg/mL (≈ 1.46 µM). It also gave an MIC [16] of 0.125 µg/mL (≈ 0.366 µM), an MIC [17] of 0.25 µg/mL (≈ 0.732 µM) and an MIC [18] of 2 µg/mL (≈ 5.86 µM). It also gave an MIC [19] of 1 µg/mL (≈ 2.93 µM), an MIC [20] of 0.125 µg/mL (≈ 0.366 µM) and an MIC [21] of 64 µg/mL (≈ 188 µM). For the same compound, the MIC [22] was 32 µg/mL (≈ 93.8 µM), the MIC [23] was 32 µg/mL (≈ 93.8 µM) and the MIC [24] was greater than 128 µg/mL. It also gave an MIC [25] of 128 µg/mL (≈ 375 µM), an MIC [26] of 128 µg/mL (≈ 375 µM) and an MIC [27] of 128 µg/mL (≈ 375 µM). For the same compound, the MIC [28] was 128 µg/mL (≈ 375 µM), the MIC [29] was greater than 128 µg/mL and the MIC [30] was greater than 128 µg/mL. It also gave an MIC [31] greater than 128 µg/mL, an MIC [32] of 64 µg/mL (≈ 188 µM) and an MIC [33] greater than 128 µg/mL. The MIC [34] was greater than 128 µg/mL, the MIC [35] was greater than 128 µg/mL and the MIC [36] was greater than 128 µg/mL. For the same compound, the MIC [37] was greater than 128 µg/mL, the Time [38] was 5 h and the Time [39] was 3 h. The Time [40] was 7 h, the Time [41] was 7 h and the “fold change (FC)” value [42] was 2. For the same compound, the “fold change (FC)” value [43] was 4, the “fold change (FC)” value [44] was 8 and the Activity [45] was “Active”.

From ChEMBL document CHEMBL5370591, “A Potent and Narrow-Spectrum Antibacterial against Clostridioides difficile Infection” (J Med Chem, 2023)
